One block for each compound: values may come before it. Where a SMILES comes first, the peptide text is derived from it. Where no end group is shown, it is not given here. The star is where a group is joined. Cbz = O=C(OCc1ccccc1)*; CH2F = FC*
Legend:
[1] = target: cathepsin D (Homo sapiens, UniProt P07339); conditions: cited from earlier work
[2] = target: cathepsin L (Homo sapiens, UniProt P07711); conditions: cited from earlier work
[3] = target: T1, Recombinant mouse Cathepsin L (Mus musculus, UniProt P06797); experiment: Inhibition of recombinant mouse Cathepsin L cleavage of rH3-HIS by E64 (immunoblot, FIG. 13); format: biochemical; conditions: pH 7.5 and pH 5.5; E64 10 μM, 50 μM, and 500 μM
T1 construct: purchased R&D Systems 1515-CY-010
T1 sequence (P06797 114-334): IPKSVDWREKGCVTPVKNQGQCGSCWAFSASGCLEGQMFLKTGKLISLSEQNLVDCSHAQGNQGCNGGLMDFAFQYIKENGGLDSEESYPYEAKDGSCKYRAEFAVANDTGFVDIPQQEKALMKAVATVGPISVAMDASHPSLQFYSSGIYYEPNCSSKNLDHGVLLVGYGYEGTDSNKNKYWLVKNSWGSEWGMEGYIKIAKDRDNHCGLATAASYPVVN
Protocol: Recombinant mouse Cathepsin L was incubated with C-terminally HIS-tagged recombinant histone H3 at both pH 7.5 (left) and pH 5.5 (right) in either buffer alone (−) or in the presence of the cysteine protease inhibitor E64 (+); the final concentration of E64 was 10 μM, 50 μM, and 500 μM.
(§1) Extracts were incubated in buffer (10 mM HEPES, 10 mM KCl, 1.5 mM MgCl2, 0.34M sucrose, 10% glycerol, 5 mM β-mercaptoethanol, all final) with 0.1 μg/μl rH3-HIS (purified from E. coli) and incubated at 37° C. for 1-3 hours. Reactions were stopped by addition of 5×SDS sample buffer and boiling; results were analyzed by immunoblotting with HIS-HRP and/or H3.cs1 antibody. For MS analysis, reactions were quenched by addition of 0.1% (final) TFA. rCathepsin L (R&D Systems, # 1515-CY-010), rCathepsin B (R&D Systems Cat No. BAF965), and rCathepsin K (Calbiochem Cat. No. 342001) were purchased from commercial sources and tested in the assay with rH3-HIS.

[4] = target: T2, H3 protease activity in fraction #23 (Mus musculus, UniProt P06797); experiment: In vitro H3 cleavage assay of hydroxyapatite fraction #23 +/- protease inhibitors; format: biochemical
T2 construct: a double chain mature form at ˜25 kD and ˜5 kD; endogenous in cells; host or cells: chromatin of 3 days +RA differentiating mouse ESCs (LF2), hydroxyapatite fraction #23
T2 sequence (P06797 114-288 limits assumed): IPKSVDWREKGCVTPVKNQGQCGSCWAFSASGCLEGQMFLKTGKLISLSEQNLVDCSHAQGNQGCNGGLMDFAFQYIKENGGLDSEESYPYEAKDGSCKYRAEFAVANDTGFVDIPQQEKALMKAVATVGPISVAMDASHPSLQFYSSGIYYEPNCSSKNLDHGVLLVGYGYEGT
T2 sequence (P06797 291-334 limits assumed): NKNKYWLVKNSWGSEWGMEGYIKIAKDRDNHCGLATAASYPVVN
Protocol: as §1
Three days+RA differentiating ESC chromatin pellets were solubilized by sonication in buffer A (80 mM NaPO^−4, 200 mM NaCl), injected onto a 2 or 5 mL hydroxyapatite column (BioRad), and fractionated with a 200 mM to 2M NaCl gradient. Each fraction was then assayed as described above. […] Digest was then acidified with glacial acetic acid and aliquots of samples were analyzed using an LTQ-FT as described above. Data was searched against a mouse database using SEQUEST (Eng et al., Journal of the American Society of Mass Spectrometry 5:976-989 (1994), which is hereby incorporated by reference in its entirety). All spectra of interest were manually validated.
To validate further the identification of Cathepsin L as a histone H3 protease, the enriched fractions were tested with different classes of protease inhibitors in the H3 cleavage assay.

[5] = target: T3, Cbx7-CD protein (Mus musculus, UniProt Q8VDS3); experiment: Fluorescence anisotropy of Cbx7-CD binding to H3 peptides; conditions: p<0.01
T3 construct: the chromodomain of mouse CBX7; made in house
T3 sequence (Q8VDS3 11-69 limits assumed): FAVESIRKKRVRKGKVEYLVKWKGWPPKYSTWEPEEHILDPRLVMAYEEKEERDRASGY
Protocol: FIG. 7A is an immunoblot showing cleavage of the modified recombinant histone 3 substrates following incubation with rCathepsin L. The four rH3 substrates used in the cleavage assay include: 1=rH3 unmodified, 2=rH3 alkylated to K27me2, 3=rH3 pan-acetylated with acetic anhydride, 4=rH3+K27me2 pan-acetylated with acetic anhydride. FIG. 7B is a graph showing the amount of recombinant H3 cleavage product formed following incubation with Cathepsin L. H3 cleavage reactions were performed as in FIG. 7A using synthesized H3 peptides representing amino acids 15 to 31. Reactions were incubated with ˜250 pmol peptide and quenched with 0.1% TFA before being plated in duplicate for ELISA with the H3cs.1 antibody. Signal was normalized to that of mock reactions for each peptide. Results represent three independent experiments. […] Binding decreases 3-fold with cleaved peptide. p<0.01. Kds are in μM±SEM. Data points represent the mean±SD
What effect the cleavage of the H3 tail, a proteolytic modification rather than a covalent modification, might have on the binding of effector proteins was examined. […]

[6] = target: T4, chromodomain of mouse CBX7 (Mus musculus, UniProt Q8VDS3); experiment: Peptide pull-down assay; format: binding; conditions: cleaved vs non-cleaved H3 tail peptide
T4 construct: the chromodomain of mouse CBX7; made in house
T4 sequence (Q8VDS3 11-69 limits assumed): T3 sequence (Q8VDS3 11-69 limits assumed)
Protocol: Peptide pull-down assays were performed as described Wysocka, J. “Identifying Novel Proteins Recognizing Histone Modifications Using Peptide Pull-down Assay,” Methods 40:339-343 (2006), which is hereby incorporated by reference in its entirety, using biotinylated peptides conjugated to streptavidin agarose beads (Pierce Cat. No. 20349). Elutions were loaded onto 10 or 15% SDS-PAGE gels and silver stained.
What effect the cleavage of the H3 tail, a proteolytic modification rather than a covalent modification, might have on the binding of effector proteins was examined. Given that K27 methylation is a well-documented binding site for the chromodomain-containing protein Polycomb (Bernstein et al., “Mouse Polycomb Proteins Bind Differentially to Methylated Histone H3 and RNA and are Enriched in Facultative Heterochromatin,” Mol Cell Biol 26:2560-2569 (2006) and Fischle et al., “Molecular Basis for the Discrimination of Repressive Methyl-lysine Marks in Histone H3 by Polycomb and HP1 Chromodomains,” Genes Dev 17:1870-1881 (2003), which are hereby incorporated by reference in their entirety), the effect of H3 cleavage on Pc binding to H3K27 methylation was tested. […]

[7] = target: T5, Cathepsin L (Mus musculus, UniProt P06797); experiment: Chemical inhibition of Cathepsin L in RA-differentiating ESCs (immunoblot); format: cell-based; conditions: 10 uM in cell media, RA differentiation
T5 construct: endogenous in cells; host or cells: mouse ES cells (LF2 line), RA-differentiated
T5 sequence (P06797 114-334): as the sequence (P06797 114-334) above
Protocol: (§2) ES cells (LF2 line) were cultured as previously described (Bernstein et al., “Mouse Polycomb Proteins Bind Differentially to Methylated Histone H3 and RNA and are Enriched in Facultative Heterochromatin,” Mol Cell Biol 26:2560-2569 (2006), which is hereby incorporated by reference in its entirety). Cells were grown on gelatin-coated plates without feeder cells and maintained in an undifferentiated state through culture in KODMEM (Invitrogen 1082-9018)), 2 mM L-glutamine (Sigma G7513), 15% ES grade fetal bovine serum (Gibco 10439-024), 10^−4 mM 2-mercaptoethanol, and leukemia inhibitory factor (LIF). To differentiate, cells were plated sparsely at ˜1*10^4 cells/cm^2, allowed to adhere overnight and then fed with differentiation media containing DMEM, 10% FBS, 10^−4 mM 2-mercaptoethanol and, for retinoic acid (RA) differentiation, 100 nM all-trans-RA (Sigma R2625). Embryoid body formation was accomplished by splitting partially trypsinized cells onto non-treated petri dishes and allowing cells to cluster. Chemical inhibition of Cathepsin L was accomplished by adding 10 uM [final] Cathepsin L I inhibitor (Calbiochem, Cat. No. 219402) to the cell media.
Whole cell extracts were prepared by resuspending fresh or flash frozen cell pellets in SDS-Laemmli sample buffer and boiling immediately. […]
(§3) To further assess whether Cathepsin L causes histone H3 cleavage in vivo, a commercially available, cell-permeable Cathepsin L specific inhibitor, Cathepsin L Inhibitor I, was used Inhibition of Cathepsin L using a chemical inhibitor allowed the effect of Cathepsin L inhibition to be assessed within a single, wild-type cell line rather than comparing individual cell lines created by drug selection. […]

[8] = target: T6, Cathepsin B (Mus musculus, UniProt P10605); experiment: Chemical inhibition in RA-differentiating ESCs, Cathepsin B immunoblot; format: cell-based; conditions: 10 uM in cell media, RA differentiation, vs control cells
T6 construct: endogenous in cells; host or cells: mouse ES cells (LF2 line), RA-differentiated
T6 sequence (P10605 80-333): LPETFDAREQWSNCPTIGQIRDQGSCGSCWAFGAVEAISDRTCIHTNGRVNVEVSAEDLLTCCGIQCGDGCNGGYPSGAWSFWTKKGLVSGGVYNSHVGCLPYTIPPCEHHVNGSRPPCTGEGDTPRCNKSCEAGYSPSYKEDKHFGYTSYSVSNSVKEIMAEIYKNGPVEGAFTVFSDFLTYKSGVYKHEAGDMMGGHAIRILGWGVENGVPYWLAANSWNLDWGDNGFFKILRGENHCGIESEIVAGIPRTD
Protocol: ES cells (LF2 line) were cultured as previously described (Bernstein et al., “Mouse Polycomb Proteins Bind Differentially to Methylated Histone H3 and RNA and are Enriched in Facultative Heterochromatin,” Mol Cell Biol 26:2560-2569 (2006), which is hereby incorporated by reference in its entirety). Cells were grown on gelatin-coated plates without feeder cells and maintained in an undifferentiated state through culture in KODMEM (Invitrogen 1082-9018)), 2 mM L-glutamine (Sigma G7513), 15% ES grade fetal bovine serum (Gibco 10439-024), 10^−4 mM 2-mercaptoethanol, and leukemia inhibitory factor (LIF). To differentiate, cells were plated sparsely at ˜1*10^4 cells/cm^2, allowed to adhere overnight and then fed with differentiation media containing DMEM, 10% FBS, 10^−4 mM 2-mercaptoethanol and, for retinoic acid (RA) differentiation, 100 nM all-trans-RA (Sigma R2625). […]
as §3

[9] = tested on: differentiating ESCs; experiment: Pluripotency and lineage marker expression in differentiating ESCs (immunoblot, Q-PCR); format: cell-based, mouse; conditions: for Nanog expression: inhibitor vs control cells
Source text: FIGS. 15A-15C show the effect of in vivo chemical inhibition of Cathepsin L on the transcriptional profile of differentiating ESCs. Cells were differentiated with RA in the presence of either Cathepsin L I inhibitor or DMSO alone, as in FIG. 6B. mRNA was isolated from those cells at the time points indicated, reverse transcribed into cDNA, and assayed for the expression of specific genes by Q-PCR with SYBR green. The data shown in FIGS. 15A-15C represent the average of two independent experiments.
as §2
RNA was isolated from undifferentiated and +RA differentiating ESCs using Trizol reagent as directed by the manufacturer (Invitrogen Cat. No. 15596-018). RNA was transcribed into cDNA using the First Strand Superscript kit (Invitrogen Cat. No. 18080-051) and analyzed by quantitative PCR using SYBRgreen reagent (Applied Biosystems Cat. No. 4309155).
Importantly, neither Oct-3/4 nor Cathepsin B levels (FIG. 6C, panels d and e) appeared to change upon addition of the inhibitor.

[10] = Q-PCR, after 3 days of differentiation, vs control cells

cathepsin L, sequence (P07711 114-333, species assumed): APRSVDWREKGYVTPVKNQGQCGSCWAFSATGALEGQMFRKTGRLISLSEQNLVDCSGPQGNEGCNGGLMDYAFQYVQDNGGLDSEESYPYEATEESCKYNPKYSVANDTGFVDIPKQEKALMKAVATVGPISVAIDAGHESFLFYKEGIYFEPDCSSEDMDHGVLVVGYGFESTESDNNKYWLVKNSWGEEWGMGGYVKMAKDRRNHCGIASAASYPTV
cathepsin D, sequence (P07339 65-412): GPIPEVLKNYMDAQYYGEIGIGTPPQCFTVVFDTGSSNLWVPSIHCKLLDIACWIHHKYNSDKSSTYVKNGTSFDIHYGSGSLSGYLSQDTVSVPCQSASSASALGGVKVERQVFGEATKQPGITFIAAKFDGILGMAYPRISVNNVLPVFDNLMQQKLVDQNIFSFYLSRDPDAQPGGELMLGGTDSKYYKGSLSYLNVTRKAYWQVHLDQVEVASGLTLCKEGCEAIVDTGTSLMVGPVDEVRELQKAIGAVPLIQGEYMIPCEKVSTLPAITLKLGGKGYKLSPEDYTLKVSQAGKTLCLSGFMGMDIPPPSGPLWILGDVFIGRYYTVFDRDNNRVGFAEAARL

Compound: NC(N)=O [Urea]
enhancement of cathepsin D activity, factor [1]: 6 | enhancement of cathepsin L activity, factor [2]: 2.5

H3 cleavage activity ([4]; E64 10 μM, lowest concentration tested): all cleavage was abolished
Compound: CC(C)C[C@H](NC(=O)[C@H]1O[C@@H]1C(=O)O)C(=O)NCCCCN=C(N)N (relative stereo) [E64, L-trans-Epoxysuccinyl-leucylamido(4-guanidino)butane]
inhibition of recombinant mouse Cathepsin L (rH3-HIS cleavage) [3]: inhibition of recombinant mouse Cathepsin L | inhibition of H3 protease activity in fraction #23 ([4]; FIG. 4A): potent inhibitor of the H3 protease activity

decrease in Cbx7-CD binding vs non-cleaved peptide (amino acid residues 18-37) [5]: 3 fold | CBX7 binding to methylated H3K27 [6]: greatly diminished
Compound: cleaved peptide: peptide mimicking the cleaved H3 tail, amino acid residues 22-37, K27 methylated (TKAARK(Me)SAPATGGVKK; not fully specified)

all cleavage detected by the H3-general antibody [7]: abolished | histone H3 cleavage (H3-general and H3.cs1 antibodies) ([7]; vs DMSO): decreased significantly | Cathepsin B levels [8]: consistency of Cathepsin B levels
Compound: O=C(NC(Cc1ccccc1)C(=O)NC(Cc1ccccc1)C(=O)CF)OCc1ccccc1 (stereo not drawn) [Cathepsin L Inhibitor I] (Cbz-Phe-Phe-CH2F; configuration not given here)
processing of Cathepsin L from intermediate form into mature form ([7]; vs DMSO): significant failure to fully process Cathepsin L | Nestin expression [9, 10]: trend toward maintaining higher expression | Pax3 expression [9, 10]: trend toward maintaining higher expression | Nanog expression ([9]; Q-PCR): remains unaffected | Nanog expression ([9]; Q-PCR, listed as Cathepsin L I inhibitor): does not differ significantly | Gata6 expression ([9]; Q-PCR, vs control): decreased expression | Sox17 expression ([9]; Q-PCR, vs control): decreased expression | HoxA1 expression ([9]; Q-PCR, vs control cells): did not show any significant trend | Musashi expression ([9]; Q-PCR, vs control cells): did not show any significant trend | Oct-3/4 loss pattern (pluripotency marker) ([9]; immunoblot, RA differentiation): unchanged

— patent publication US20110312897A1, “CATHEPSIN L PROTEOLYTICALLY PROCESSES HISTONE H3 DURING MOUSE EMBRYONIC STEM CELL DIFFERENTIATION” (THE ROCKEFELLER UNIVERSITY, priority 2008, published 2011)
